Consider 3 compounds from ChEMBL document CHEMBL1129417, “Glucose transport-enhancing and hypoglycemic activity of 2-methyl-2-phenoxy-3-phenylpropanoic acids” (1996).

As usually defined, the ED50 is the midpoint of the dose-response relation. One may read the Inhibition as how much of the control response was suppressed.

Some results are limits rather than exact numbers.

Assay [1] deals with 3T3-L1. Put plainly: compound was evaluated for their acute effects in vitro by measuring 2-Deoxyglucose (2DG) uptake in vehicle treated 3T3-L1 adipocytes at 0.5 uM dose. It counts as functional.
The subject of assay [2] is 3T3-L1. The assay is described as follows: Acute effects in vitro by measuring 2-deoxyglucose (2DG) uptake in vehicle treated 3T3-L1 adipocytes at 10 uM dose. It counts as functional.
The test system of assay [3] is 3T3-L1. The assay is described as follows: compound was evaluated for their acute effects in vitro by measuring 2-Deoxyglucose (2DG) uptake in vehicle treated 3T3-L1 adipocytes at 1 uM dose. In kind it is functional.
In assay [4] the test system is 3T3-L1. The assay is described as follows: Acute effects in vitro by measuring 2-deoxyglucose (2DG) uptake in vehicle treated 3T3-L1 adipocytes at 30 uM dose. In kind it is functional.
Assay [5] relates to 3T3-L1. The assay is described as follows: In vitro by measurements of 2-Deoxyglucose (2DG) uptake in vehicle treated 3T3-L1 adipocytes at 3 uM dose. It counts as functional.
The test system of assay [6] is 3T3-L1. The assay is described as follows: In vitro measurements of 2-Deoxyglucose (2DG) uptake in vehicle treated 3T3-L1 adipocytes at 60 uM dose. In kind it is functional.
Assay [7] concerns Mus musculus. The assay is described as follows: In vivo hypoglycemic activity expressed as glucose lowering relative to positive control in 6-8 week old C57BL/6J ob/ob mouse at 10 mg/kg. In kind it is functional.
In assay [8] the test system is Mus musculus. Put plainly: In vivo hypoglycemic activity expressed as glucose lowering relative to positive control in 6-8 week old C57BL/6J ob/ob mouse at 1 mg/kg. In kind it is functional.
Assay [9] concerns Mus musculus. The assay is described as follows: compound was tested in vivo for hypoglycemic activity expressed as Glucose lowering relative to positive control in 6-8 week old C57BL/6J ob/ob mouse at 2.5 mg/kg. In kind it is functional.
Assay [10] has as its system Mus musculus. Put plainly: In vivo hypoglycemic activity expressed as glucose lowering relative to positive control in 6-8 week old C57BL/6J ob/ob mouse at 5 mg/kg. In kind it is functional.
The species entered for assay [11] is Rattus norvegicus. The assay is described as follows: Inhibition of gluconeogenesis in rat. It counts as functional.
Assay [12] concerns Mus musculus. Put plainly: compound was tested in vivo for hypoglycemic activity expressed as Glucose lowering relative to positive control in 6-8 week old C57BL/6J ob/ob mouse at 10 uM dose. It counts as functional.
The test system of assay [13] is Mus musculus. Put plainly: compound was tested in vivo for hypoglycemic activity expressed as Glucose lowering relative to positive control in 6-8 week old C57BL/6J ob/ob mouse at 1 uM dose. It counts as functional.
Assay [14] deals with Mus musculus. The assay is described as follows: compound was tested in vivo for hypoglycemic activity expressed as Glucose lowering relative to positive control in 6-8 week old C57BL/6J ob/ob mouse at 5 uM dose. It counts as functional.
In assay [15] the test system is 3T3-L1. Put plainly: In vitro measurements 2-Deoxyglucose (2DG) uptake in vehicle treated 3T3-L1 adipocytes at 100 uM dose. In kind it is functional.
The subject of assay [16] is Mus musculus. The assay is described as follows: compound was tested in vivo for hypoglycemic activity expressed as Glucose lowering relative to positive control in 6-8 week old C57BL/6J ob/ob mouse at 50 mg/kg. In kind it is functional.
Assay [17] is filed under the species Rattus norvegicus. Put plainly: Percentage inhibition of Glucagon-stimulated Gluconeogenesis in Isolated Rat Hepatocytes in vitro. In kind it is functional, Hepatocyte.
Assay [18] is filed under the species Rattus norvegicus. The assay is described as follows: Percentage inhibition of basal stimulated Gluconeogenesis in Isolated Rat Hepatocytes in vitro. In kind it is functional, Hepatocyte.
Setting [19] is: Rattus norvegicus, read-out: ED50.

On to `CC(C)c1ccc(OC(C)(C(=O)O)C(C)c2ccc(Cl)cc2)cc1` (stereo in doubt; 84), for which the Basal uptake in the assay on 3T3-L1 [1] is 98%; in the assay on 3T3-L1 [2] it was 131%; in the assay with 3T3-L1 [3], 99%; in the assay with 3T3-L1 [4], 128%; in the assay on 3T3-L1 [5] it was 102%; in the assay on 3T3-L1 [6], 214%. For the same compound, the Hypoglycemic activity with Mus musculus [7] (10 mg/kg) is given as 142%; with Mus musculus [8], below 0%; in the assay with Mus musculus [9] it was 62%; in the assay on Mus musculus [10], 77%. This compound also came in with a median effective dose (ED50) in the assay filed under Rattus norvegicus [11] of 2.5 mg/kg.
Consider `CC(C)c1ccc(OC(C)(Cc2cccc(Cl)c2)C(=O)[O-])cc1.[Na+]` (configuration not stated), for which the Hypoglycemic activity with Mus musculus [12] is recorded as 101%; in the assay on Mus musculus [13] it was 47%; in the assay with Mus musculus [14] it was 32%. Further, in the assay listed under Rattus norvegicus [11] (setting [19]), the ED50 was found to be 5 mg/kg.
`CC(C)c1ccc(OC(Cc2ccc(Cl)cc2)C(=O)O)cc1` (configuration not stated) registered a Basal uptake in the assay with 3T3-L1 [15] of 150%. Besides, the Hypoglycemic activity stood at 58% in the assay with Mus musculus [7], 82% with Mus musculus [16] and 26% with Mus musculus [10]. Also, the ED50 in the assay filed under Rattus norvegicus [11] (setting [19]) was 10 mg/kg. The Inhibition was determined as 20% in the assay filed under Rattus norvegicus [17] and 32% in the assay listed under Rattus norvegicus [18].
